Columns and labels:
male Wistar rats = assay: Measurement of plasma corticosterone concentration in the rat (radio-immunoassay); format: in vivo; conditions: treatment per os, 15 mg/kg
Procedure: Examinations were carried out by using male wistar rats weighing 250-300 g. The animals were kept in an air-conditioned room, 12 hours artificial daylight was followed by 12 hours darkness. For four days prior to the experiments the animals got 0.5 ml water daily by a gastric-canule. The weight of the animals was measured at the evening before the experiments, then the animals were placed in separate cages.
Experiments were accomplished in the morning between 9 and 12 hours.
Before the treatment the animals were randomized to groups (7 animals/group)
The tested compounds were administered in a 15 mg/body weight kg dose, in 5 ml/kg solvent volume, using gastric-canule. The control animals were treated with solvent. The solvent composition contained 0.2 ml of 2.5 M HCl and 19.8 ml of distilled water.
After one hour of the treatment the animals were decapitated and about 2 ml of blood were collected in an ice-cold test tube containing 100 μl of 2% (WN) K-EDTA.
For the determination of corticosterone concentration, a corticosterone-3-CMO-BSA anti-body prepared in rabbit was used in a dilution of 1:40000. The antibody cross-reaction with desoxycorticosteron was 1.5%; with progesterone it was 2.3%. […]
The corticosterone concentration was measured from 10 μl plasma without extraction. […] The radioactivity was measured with LKB Clinigamma apparatus. […]

AMPA receptor = assay: Spreading depression (SD) test in the chicken retina, in vitro; format: cell-based; conditions: antagonism of SD latency generated by 5 μM S-AMPA, isolated chicken retina, 30-minute incubation, room temperature; average ± deviation of the average
Procedure: The test was carried out according to method of Sheardown (1993).
Isolated eye-cups of 5-7 days old chickens (Shaver red-brow) were used. The sexes of the chickens were unidentified. Eyes of the animals were enucleated in narcosis caused by etherization, then the back sides of the eyes were cut and put in nutrient solution.
The composition of the medium is 100 mM NaCl, 3 mM KCl, 1 mM MgSO4, 1 mM CaCl2, 30 mM NaHCO3, 1 mM NaH2PO4 10 mM D-glukose, pH=7.3.
The spreading depression (SD) latency generated by 5 μM S-AMPA is determined at room temperature followed by a 90-minute stabilisation period. This value was considered as control value. Then the latency caused by AMPA was measured following a 30-minute incubation period in the presence of the test compound, then followed by further 60 minutes washing the recursion of the latency time to the control value was checked.
The elongation of the control latency with 30 sec corresponds to 100% antagonism. • Literature: Sheardown, M. J.: The triggering of spreading depression in the chicken retina: a pharmacological study. Brain Research 1993, 607: 189-194.

female Wistar rats = assay: Toxicity test in rats: histological atrophy of thymus and bone-marrow after seven-day p.o. treatment; format: in vivo, rat; conditions: for thymus cortex atrophy (scores): female Wistar rats, 30 mg/kg p.o. once daily for seven days, score 0 (no change) to 4 (severe), average ± deviation of the average; for bone-marrow atrophy (scores): female, Wistar, po, 30 mg/kg, 7 days; for bone-marrow atrophy (scores) / effect on the hystological pictures of the thymus and bone-marrow (in words): rat, in vivo
Procedure: The examination was carried out using female Wistar rats. One day before the treatment the animals were assigned to randomised groups based on their weight (10 animals/group). Each active ingredient was suspended in a solution of 0.4% hydroxypropylmethylcellulose (Methocell F4 M, Dow Chemical Company, USA) and administered once daily for seven days by gastric-canule. The daily doses were 30 mg/kg, the animals of the control group were treated with the solvent. At the end of the experiments the animals were sacrificed by incising of the arteries of thigh in narcosis caused by ether.
After the thymus-ectomy thymi were fixed in a solution of formaline buffered with phosphate, then embedded in paraffin, pigmented with hemalaun-eosin.
Bone-marrow film preparations were made from the femur of the animals and pigmented according to Grimsa method (Sheenan D. C.-Hrapchak B. B.: Theory and practice of histotechnology (2nd ed.) Mosby Company, St. Louis, USA 1980).
The histological athrophy was scored as follows: 0—there is no change, 1—change appears, 2—slight change, 3—middle severe change, marked change, 4—severe, obvious, wide change. The rating was accomplished blind without any information about the treatment.
Groups were compared by KRUSKAL WALLIS ANOVA test (Ranks and Median). In case of significant deviation (p<0.05) WALD-WOLFOWITZ test was used for comparison.

SMILES	effect on the plasma corticosterone concentration (in words) (male Wistar rats)	EC50 (AMPA receptor)	thymus cortex atrophy (scores) (female Wistar rats)	bone-marrow atrophy (scores) (female Wistar rats)	effect on the hystological pictures of the thymus and bone-marrow (in words) (female Wistar rats)
CC(=O)N1N=C(c2ccc(N)c(C)c2)c2cc(Cl)ccc2C[C@@H]1C [Example 16, (S)-(+)-3-acetyl-1-(4-amino-3-methylphenyl)-8-chloro-4-methyl-4,5-dihydro-3H-2,3-benzodiazepine]	elevated the plasma corticosterone concentration				
CC(=O)N1N=C(c2ccc(N)c(C)c2)c2cc3c(cc2C[C@H]1C)OCO3 [Example 4, (R)-(−)-7-acetyl-5-(4-amino-3-methylphenyl)-8-methyl-8,9-dihydro-7H-1,3-dioxolo[4,5-h][2,3] benzodiazepine]		1800 ± 100 nM	0.30 ± 0.21 scores	0.40 ± 0.27 scores	only in a minimal degree
CC(=O)N1N=C(c2ccc(N)c(C)c2)c2cc3c(cc2C[C@@H]1C)OCO3 [Example 6, (S)-(+)-7-Acetyl-5-(4-amino-3-methylphenyl)-8-methyl-8,9-dihydro-7H-1,3-dioxolo[4,5-h][2,3] benzodiazepine]			2.9 ± 0.43 scores	2.1 ± 0.31 scores	caused significant hystological atrophy in the thymus and the bone-marrow
CC(=O)N1N=C(c2ccc(N)c(C)c2)c2cc(Cl)ccc2C[C@H]1C [Example 15, (R)-(−)-3-acetyl-1-(4-amino-3-methylphenyl)-8-chloro-4-methyl-4,5-dihydro-3H-2,3-benzodiazepine]	did not affect the plasma corticosterone concentration	3900 ± 200 nM			
